The source made the active and inactive calls. No cut-off for these calls is given here.

The target in series [1] is Histone deacetylase 2 (Homo sapiens, UniProt Q92769). Put plainly: biochemical. Format: cell-based, Sf9.
Description: Inhibition of recombinant human full length C-terminal His tagged HDAC2 (1 to 488 residues) expressed in baculovirus-infected Sf9 insect cells using Ac-peptide as substrate incubated for 4 hrs
The nature of series [2]: Cytotoxicity against HEK293T cells incubated for 72 hrs by CCK-8 assay. Conditions: human.
The nature of series [3]: Selectivity index, ratio of IC50 for cytotoxicity against HEK293T cells to IC50 for antimalarial activity against asexual blood stage wild-type Plasmodium falciparum 3D7. Format: toxicity, cell-based. Conditions: human, read-out: Ratio IC50.
Series [4] concerns Plasmodium yoelii. Briefly: Antimalarial activity against blood stage Plasmodium yoelii infected in BALB/c mouse assessed as parasite recrudescence by measuring parasitemia at 30 mg/kg, ip qd for 5 days and measured for 8 to 16 days. Conditions: time 8-16 day. In kind it is functional.
A short description of series [5]: Cmax in BALB/c mouse at 5 mg/kg, ip measured upto 24 hrs by LC-MS/MS analysis. On the set-up: route intraperitoneal, dose 5 mg/kg, time <=24. Conditions: in vivo. Format: ADME, organism-based.
In series [6] the test system is Plasmodium falciparum. Briefly: In vivo inhibition of C-terminal TY1 fused HDAC1 in Plasmodium falcipuram 3D7 assessed as inhibition of parasite growth by measuring downregulation of RBC invasion-related genes expression level by RNA-seq analysis. In kind it is functional, organism-based.
The test system of series [7] is Plasmodium falciparum. Put plainly: Antimalarial activity against synchronized Plasmodium falcipuram 3D7 infected in human RBC assessed as ring stage parasite killing at 40 nM treated […] and incubated for 12 hrs followed by compound washout and replacement with fresh medium without compounds and measured at 50 hrs post infection by Geimsa staining based microscopy. In kind it is functional, organism-based.

Series [8] is described as follows: AUC (0 to last) in BALB/c mouse at 5 mg/kg, ip measured after upto 24 hrs by LC-MS/MS analysis. Format: ADME, organism-based. On the set-up: route intraperitoneal, dose 5 mg/kg, time <=24. Conditions: in vivo.
The nature of series [9]: Toxicity in BALB/c mouse infected with blood stage Plasmodium yoelii assessed as animal death at 60 mg/kg, ip qd for 5 days measured from day 2 post compound treatment. Format: organism-based. Conditions: in vivo, 120 h, time 5 day.
The test system of series [10] is Plasmodium falciparum. Put plainly: Antimalarial activity against blood stage asynchronous Plasmodium falcipuram 3D7 assessed as parasite growth inhibition by measuring parasitemia at 10 to 100 nM incubated for 12 to 24 hrs by flow cytometry. In kind it is functional, organism-based. Conditions: dose 10-100 nM, time 12-24 hrs.
Series [11] is described as follows: AUC (0 to infinity) in BALB/c mouse at 5 mg/kg, ip measured after upto 24 hrs by LC-MS/MS analysis. In kind it is ADME, organism-based. On the set-up: route intraperitoneal, dose 5 mg/kg, time <=24. Conditions: in vivo.
The nature of series [12]: Toxicity in BALB/c mouse infected with blood stage Plasmodium yoelii assessed as body weight loss at 30 to 90 mg/kg, ip qd for 5 days and measured upto 60 days. In kind it is organism-based. Conditions: in vivo, dose 30-90 mg/kg, time <=60 day.
In series [13] the target is T1, NAD-dependent protein deacetylase sirtuin-2 (Homo sapiens, UniProt Q8IXJ6).
T1 sequence (Q8IXJ6 whole entry): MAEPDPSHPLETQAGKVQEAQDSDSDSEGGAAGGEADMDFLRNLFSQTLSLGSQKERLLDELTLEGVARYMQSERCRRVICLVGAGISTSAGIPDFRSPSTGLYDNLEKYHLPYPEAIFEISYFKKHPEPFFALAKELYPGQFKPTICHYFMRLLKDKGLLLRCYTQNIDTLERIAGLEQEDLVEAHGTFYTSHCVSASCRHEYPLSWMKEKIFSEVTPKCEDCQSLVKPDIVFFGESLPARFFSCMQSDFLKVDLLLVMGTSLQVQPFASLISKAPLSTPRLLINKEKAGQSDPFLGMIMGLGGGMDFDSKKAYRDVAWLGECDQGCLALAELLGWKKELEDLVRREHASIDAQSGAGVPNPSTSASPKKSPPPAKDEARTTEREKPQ
Briefly: Inhibition of human C-terminal His-tagged SIRT2 (50 to 356 residues) expressed in Escherichia coli using Ac-peptide as substrate incubated for 4 hrs followed by trypsin addition and further incubated for 2 hrs.

Series [14] deals with Plasmodium yoelii. Put plainly: Antimalarial activity against blood stage Plasmodium yoelii infected in BALB/c mouse assessed as parasite recrudescence by measuring parasitemia at 60 mg/kg, ip qd for 5 days and measured on 12 to 18 days. Conditions: time 12-18 day. In kind it is functional.
The subject of series [15] is Plasmodium falciparum. Put plainly: Inhibition of Plasmodium falcipuram HDAC assessed as effect on parasite histone deacetylation level at 5 to 20 nM incubated for 4 hrs by Western blot analysis. Conditions: dose 5-20 nM.
A short description of series [16]: In vivo inhibition of C-terminal TY1 fused HDAC1 in Plasmodium falcipuram 3D7 assessed as inhibition of parasite growth incubated for 4 hrs followed by compound washout and replacement with fresh medium with compounds measured after 68 hrs by SYBR Green I staining based fluorescence analysis. Format: functional, organism-based, Plasmodium falciparum.
Series [17] concerns the target T2, Protein deacetylase HDAC6 (Homo sapiens) (UniProt Q9UBN7).
T2 sequence (whole entry): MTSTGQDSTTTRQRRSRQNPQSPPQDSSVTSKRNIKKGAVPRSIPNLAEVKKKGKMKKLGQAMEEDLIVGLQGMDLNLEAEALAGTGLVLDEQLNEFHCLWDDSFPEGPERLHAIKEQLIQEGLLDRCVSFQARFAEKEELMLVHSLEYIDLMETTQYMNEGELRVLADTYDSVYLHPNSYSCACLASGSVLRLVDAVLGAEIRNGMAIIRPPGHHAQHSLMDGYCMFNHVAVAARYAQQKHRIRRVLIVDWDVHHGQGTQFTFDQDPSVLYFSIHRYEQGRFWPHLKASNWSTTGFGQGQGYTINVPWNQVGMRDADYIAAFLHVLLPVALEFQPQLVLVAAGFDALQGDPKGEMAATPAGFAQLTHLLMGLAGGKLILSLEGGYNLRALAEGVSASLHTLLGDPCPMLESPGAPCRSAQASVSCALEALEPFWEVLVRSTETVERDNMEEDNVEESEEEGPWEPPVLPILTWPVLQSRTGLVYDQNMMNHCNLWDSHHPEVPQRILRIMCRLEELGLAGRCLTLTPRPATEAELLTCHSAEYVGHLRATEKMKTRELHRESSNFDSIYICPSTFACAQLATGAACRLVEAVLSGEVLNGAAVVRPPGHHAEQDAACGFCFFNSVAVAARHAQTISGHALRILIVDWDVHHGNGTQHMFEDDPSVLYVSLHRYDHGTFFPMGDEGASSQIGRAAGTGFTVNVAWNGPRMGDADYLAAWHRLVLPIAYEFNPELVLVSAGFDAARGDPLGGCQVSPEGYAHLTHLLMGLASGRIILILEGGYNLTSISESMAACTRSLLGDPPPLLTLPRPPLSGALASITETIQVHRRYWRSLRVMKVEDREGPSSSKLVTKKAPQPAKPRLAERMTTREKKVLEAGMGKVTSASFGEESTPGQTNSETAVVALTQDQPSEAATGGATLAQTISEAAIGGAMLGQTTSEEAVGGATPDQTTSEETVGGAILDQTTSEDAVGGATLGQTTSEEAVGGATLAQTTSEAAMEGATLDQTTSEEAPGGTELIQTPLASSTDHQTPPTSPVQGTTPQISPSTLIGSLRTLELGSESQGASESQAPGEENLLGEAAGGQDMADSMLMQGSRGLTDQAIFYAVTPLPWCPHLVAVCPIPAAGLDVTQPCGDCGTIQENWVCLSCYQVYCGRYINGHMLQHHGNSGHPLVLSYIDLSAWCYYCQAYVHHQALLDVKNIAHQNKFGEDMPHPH
Put plainly: Potency index, ratio of test compound IC50 to Quisinostat IC50 for inhibition of recombinant human full length N-terminal GST tagged HDAC6 (1 to 1215 residues) expressed in baculovirus-infected Sf9 cells using Ac-peptide as substrate incubated for 4 hrs.

Sequence of Histone deacetylase 2 (Q92769 whole entry): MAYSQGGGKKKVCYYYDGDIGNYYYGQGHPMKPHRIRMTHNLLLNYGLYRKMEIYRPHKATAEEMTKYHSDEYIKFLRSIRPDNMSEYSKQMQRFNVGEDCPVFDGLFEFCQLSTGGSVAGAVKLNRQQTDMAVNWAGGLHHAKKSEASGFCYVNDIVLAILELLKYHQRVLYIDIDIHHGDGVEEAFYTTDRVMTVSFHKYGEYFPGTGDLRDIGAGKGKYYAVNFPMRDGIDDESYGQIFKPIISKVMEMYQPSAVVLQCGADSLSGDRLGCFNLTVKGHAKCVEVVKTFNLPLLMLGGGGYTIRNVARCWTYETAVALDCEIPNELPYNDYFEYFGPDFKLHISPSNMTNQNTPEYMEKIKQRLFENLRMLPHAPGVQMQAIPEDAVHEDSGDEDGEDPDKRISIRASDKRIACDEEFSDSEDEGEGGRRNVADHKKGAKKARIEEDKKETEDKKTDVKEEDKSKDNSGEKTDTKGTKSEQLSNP

`Cl.Cn1cc(CN2CC3(CCN(c4ncc(C(=O)NO)cn4)C3)C2)c2ccc(C#N)cc21`: the IC50 in series [1] is 5.1 nM; in series [13] it was greater than 10000 nM; in [16], 82.5 nM. The compound further returned a half-inhibitory concentration (IC50) at 72 h in series [2] of 1210 nM. For the same compound, in series [3], the selectivity ratio came out at 960. Further, the Activity is 0.02% in [4], “Non-Toxic” in series [9], “Non-Toxic” in series [12] and 0.11% in series [14]. The concentration in series [5] peaked (Cmax) at 539 ng/mL. Besides, in series [6], the inhibition result was “Active”. Also, the result in [7], in series [10] and in series [15] was Active. For the same compound, in series [8], the AUC(0-t) at 24 h was 638 ng·h/mL. In addition, the total exposure AUC(0-inf) in [11] is 640 ng·h/mL. The Ratio IC50 in [17] was 3.

Values taken from ChEMBL document CHEMBL5046276 (J Med Chem, 2022).
